Values quoted from earlier work as cited in article PMC11286589, “Population pharmacokinetics and exposure–response analyses of SAF-189s in Chinese patients with ALK+/ROS1+ non-small cell lung cancer” (Frontiers in Pharmacology, 2024).

Conditions: cited from earlier work

| Compound | incidence rate of hyperglycemia (FIH trial, ref Khozin et al., 2015) | effect on glucose tolerance in patients (current clinical use, ref Camidge et al., 2018, Seto et al., 2019, Wolf et al., 2022) |
| --- | --- | --- |
| Cc1cc(Nc2ncc(Cl)c(Nc3ccccc3S(=O)(=O)C(C)C)n2)c(OC(C)C)cc1C1CCNCC1 [ceritinib] | 49% |  |
| C[C@@H](Oc1cc(-c2cnn(C3CCNCC3)c2)cnc1N)c1c(Cl)ccc(F)c1Cl [crizotinib] |  | no effects on glucose tolerance |
